Results: the supplement of paper PMC10307832

Experiments:
Test in all cases: relative viability (nuclei count vs DMSO), 5 days (fraction); higher = more cells survive
[1] = compound: COC1=C(C=C(C=C1)C2=CC3=NC=CN3C(=N2)NC4=C(C=CC=N4)C(=O)N)OC [BAY61-3606] + CC(C)C[C@H](NC(=O)[C@H](Cc1ccccc1)NC(=O)c1cnccn1)B(O)O [Bortezomib] (partner 0.002 µM)
How it was run: (§1)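 Dosing by pin tool came one day after lung cancer cell lines were seeded in 1536-well plates, using either one drug or a fixed anchor-drug dose plus five library-drug doses (not always all listed) in √10 steps. After 5 days, nuclei were counted on 4× images. Relative viability is treated-well nuclei count divided by vehicle-well nuclei count, and values are medians of duplicate plates.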

[2] = compound: COC1=C(C=C(C=C1)C2=CC3=NC=CN3C(=N2)NC4=C(C=CC=N4)C(=O)N)OC [BAY61-3606] + Cc1nc(Nc2ncc(C(=O)Nc3c(C)cccc3Cl)s2)cc(N2CCN(CCO)CC2)n1 [Dasatinib] (partner 0.075 µM)
How it was run: as §1

[3] = compound: COc1cccc2c1C(=O)c1c(O)c3c(c(O)c1C2=O)C[C@@](O)(C(=O)CO)C[C@@H]3O[C@H]1C[C@H](N)[C@H](O)[C@H](C)O1 [Doxorubicin] + CS(=O)(=O)CCNCc1ccc(-c2ccc3ncnc(Nc4ccc(OCc5cccc(F)c5)c(Cl)c4)c3c2)o1 [Lapatinib] (partner 2 µM)
How it was run: as §1

[4] = compound: COC1=C(C=C(C=C1)C2=CC3=NC=CN3C(=N2)NC4=C(C=CC=N4)C(=O)N)OC [BAY61-3606] + CCNC(=O)c1noc(-c2cc(C(C)C)c(O)cc2O)c1-c1ccc(CN2CCOCC2)cc1 [Luminespib] (partner 0.01 µM)
How it was run: as §1

Cell Line: UMC-11
- relative viability ([1]; first compound 0.02 µM): 0.947
- relative viability ([1]; first compound 0.06325 µM): 0.616
- relative viability ([1]; first compound 0.2 µM): 0.643
- relative viability ([1]; first compound 0.6325 µM): 0.849
- relative viability ([1]; first compound 2 µM): 0.734
- relative viability ([2]; first compound 0.02 µM): 0.464
- relative viability ([2]; first compound 0.06325 µM): 0.587
- relative viability ([2]; first compound 0.2 µM): 0.568
- relative viability ([2]; first compound 0.6325 µM): 0.606
- relative viability ([2]; first compound 2 µM): 0.524
- relative viability ([3]; first compound 0.001 µM): 1.22
- relative viability ([3]; first compound 0.003162 µM): 1.13
- relative viability ([3]; first compound 0.01 µM): 0.906
- relative viability ([3]; first compound 0.03162 µM): 0.514
- relative viability ([3]; first compound 0.1 µM): 0.456
- relative viability ([4]; first compound 0.02 µM): 1.12
- relative viability ([4]; first compound 0.06325 µM): 1.17
- relative viability ([4]; first compound 0.2 µM): 1.08
- relative viability ([4]; first compound 0.6325 µM): 1.05
- relative viability ([4]; first compound 2 µM): 0.921
